Structures can show the parent of a compound that is named as a salt.
What was measured:
μ-receptor = μ-receptor (Homo sapiens (Human), UniProt P35372); assay: Receptor binding, competitive displacement of [3H]DAMGO; conditions: 0.25 nM [3H]DAMGO, CHO cell membrane protein, 60 min at 25° C.
Experimental: The Ki (binding affinity) for μ-receptor was determined with a previously described method using a competitive displacement assay (Neumeyer et al., J. Med. Chem., v. 46, p. 5162-5170, 2003). Membrane protein from CHO (Chinese Hamster Ovarian) cells that stably expressed one type of the cloned human opioid receptor were incubated with 12 different concentrations of the compound in the presence of 0.25 nM [3H]DAMGO, 0.2 nM [3H]naltrindole or 1 nM [3H]U69,593 in a final volume of 1 mL of 50 mM Tris-HCl, pH 7.5 at 25° C. Incubation times of 60 min were used for [3H]DAMGO and [3H]U69,593. Because of a slower association of [3H]naltrindole with the receptor, a 3 h incubation was used with this radioligand. Samples incubated with [3H]naltrindole also contained 10 mM MgCl2 and 0.5 mM phenylmethylsulfonyl fluoride. Nonspecific binding was measured by inclusion of 10 μM naloxone. The binding was terminated by filtering the samples through Schleicher & Schuell No. 32 glass fiber filters using a Brandel 48-well cell harvester. The filters were subsequently washed three times with 3 mL of cold 50 mM Tris-HCl, pH 7.5, and were counted in 2 mL Ecoscint A scintillation fluid. For [3H]naltrindole and [3H]U69,593 binding, the filters were soaked in 0.1% polyethylenimine for at least 60 min before use. IC50 values will be calculated by least squares fit to a logarithm-probit analysis. Ki values of unlabelled compounds were calculated from the equation Ki=(IC50)/1+S where S=(concentration of radioligand)/(Kd of radioligand) (Cheng and Prusoff, Biochemical Pharmacology, v. 22, p. 3099-3108, 1973).

human μ opioid receptor = human μ opioid receptor (Homo sapiens (Human), UniProt P35372); assay: Functional activity ([35S]GTPγS binding); type: biochemical; conditions: [35S]GTPγS 0.080 nM, CHO cell membranes, 60 min at 30° C., filtration
Experimental: The [^35S]GTPγS assay measures the functional properties of a compound by quantifying the level of G-protein activation following agonist binding in studies using stably transfected cells, and is considered to be a measure of the efficacy of a compound. Membranes from CHO (Chinese Hamster Ovary) cells that stably expressed one type of the cloned human opioid receptor human were used in the experiments. In a final volume of 0.5 mL, 12 different concentrations of each test compound were incubated with 7.5 μg of CHO cell membranes that stably expressed the human p opioid receptor. The assay buffer consisted of 50 mM Tris-HCl, pH 7.4, 3 mM MgCl2, 0.2 mM EGTA, 3 μM GDP, and 100 mM NaCl. The final concentration of [35S]GTPγS was 0.080 nM. Nonspecific binding was measured by inclusion of 10 μM GTPγS. Binding was initiated by the addition of the membranes. After an incubation of 60 min at 30° C., the samples were filtered through Schleicher & Schuell No. 32 glass fiber filters. The filters were washed three times with cold 50 mM Tris-HCl, pH 7.5, and were counted in 2 mL of Ecoscint scintillation fluid.

SMILES | Ki (μ-receptor) | EC50 (human μ opioid receptor)
COC1(c2cccc(C(N)=O)c2F)C2CCCC1CN(C)C2 [Compound 39, 2-fluoro-3-((1R,5S,9r)-9-methoxy-3-methyl-3-azabicyclo[3.3.1]nonan-9-yl)benzamide hydrochloride] | 1 to 5 nM | 10 to 75 nM
Cl.[2H]C([2H])([2H])N1CC2CCCC(C1)C2(OC)c1cccc(C(N)=O)c1 [Compound 54, 3-((1R,5S,9r)-9-methoxy-3-(trideuteriomethyl)-3-azabicyclo[3.3.1]nonan-9-yl)benzamide hydrochloride] | < 1 nM | < 10 nM
CCCCN1CC2CCCC(C1)C2(OC)c1cccc(C(N)=O)c1 [Compound 29, 3-((1R,5S,9r)-3-butyl-9-methoxy-3-azabicyclo[3.3.1]nonan-9-yl)benzamide hydrochloride] | < 1 nM | < 10 nM
COC1(c2ccnc(C(N)=O)c2F)C2CCCC1CN(C1CC1)C2 [Compound 57, 4-((1R,5S,9r)-3-cyclopropyl-9-methoxy-3-azabicyclo[3.3.1]nonan-9-yl)-3-fluoropicolinamide hydrochloride] | > 5 nM | > 75 nM
COC1(c2ccnc(C(N)=O)c2F)C2CCCC1CN(C)C2 [Compound 53, 3-fluoro-4-((1R,5S,9r)-9-methoxy-3-methyl-3-azabicyclo[3.3.1]nonan-9-yl)picolinamide hydrochloride] | 1 to 5 nM | > 75 nM
CN1CC2CCCC(C1)C2(OCC(F)(F)F)c1cccc(C(N)=O)c1 [Compound 37, 3-((1R,5S,9r)-3-methyl-9-(2,2,2-trifluoroethoxy)-3-azabicyclo[3.3.1]nonan-9-yl)benzamide hydrochloride] | 1 to 5 nM | 10 to 75 nM
COC1(c2cccc(C(N)=O)c2)C2CCCC1CN(CC1(F)CC1)C2 [Compound 40, 3-((1R,5S,9r)-3-((1-fluorocyclopropyl)methyl)-9-methoxy-3-azabicyclo[3.3.1]nonan-9-yl)benzamide hydrochloride] | < 1 nM | 10 to 75 nM
COC1(c2ccnc(C(N)=O)c2)C2CCCC1CN([C@H]1C[C@H]3C[C@H]3C1)C2 (stereo partly drawn) [Compound 94, 4-((1R,5S,9R)-3-((1R,3s,5S)-bicyclo[3.1.0]hexan-3-yl)-9-methoxy-3-azabicyclo[3.3.1]nonan-9-yl)picolinamide hydrochloride] | < 1 nM | 10 to 75 nM
COC1(c2ccnc(C(N)=O)c2)C2CCCC1CN(C1CC3(COC3)C1)C2 [Compound 81, 4-((1R,5S,9r)-9-methoxy-3-(2-oxaspiro[3.3]heptan-6-yl)-3-azabicyclo[3.3.1]nonan-9-yl)picolinamide (S)-2-hydroxysuccinate] | < 1 nM | 10 to 75 nM
COC1(c2ccc(C(N)=O)s2)C2CCCC1CN(C1CCCCC1)C2 [Compound 101, 5-((1R,5S,9r)-3-cyclohexyl-9-methoxy-3-azabicyclo[3.3.1]nonan-9-yl)thiophene-2-carboxamide hydrochloride] | 1 to 5 nM | > 75 nM
COC1(c2cccc(C(N)=O)c2)C2CCCC1CN(C1CCOCC1)C2 [Compound 45, 3-((1R,5S,9r)-9-methoxy-3-(tetrahydro-2H-pyran-4-yl)-3-azabicyclo[3.3.1]nonan-9-yl)benzamide hydrochloride] | 1 to 5 nM | 10 to 75 nM
COC1(c2ccnc(C(N)=O)c2)C2CCCC1CN(C[C@H]1CCCO1)C2.Cl (single isomer, unassigned) [Compound 136, hydrochloride] | > 5 nM | 10 to 75 nM
COC1(c2ccnc(C(N)=O)c2)C2CCCC1CN(CC1(O)CC1)C2 [Compound 72, 4-((1R,5S,9r)-3-((1-hydroxycyclopropyl)methyl)-9-methoxy-3-azabicyclo[3.3.1]nonan-9-yl)picolinamide hydrochloride] | 1 to 5 nM | > 75 nM
COC1(c2ccnc(C(N)=O)c2)C2CCCC1CN(C13CC(c4ccccc4)(C1)C3)C2 [Compound 106, 4-((1R,5S,9r)-9-methoxy-3-(3-phenylbicyclo[1.1.1]pentan-1-yl)-3-azabicyclo[3.3.1]nonan-9-yl)picolinamide hydrochloride] | < 1 nM | < 10 nM

Source: US10604489B2, “Compounds for the treatment of pain” (priority 2018, dated 2020)
